Columns and labels:
human fibroblasts [1] = assay: MTT assay, proliferation of skin cells; assay type: cell-based; settings: for proliferation of human fibroblasts compared with control: 24 hr, MTT, FIG. 2(A)
Method: (§1) Skin cells are cultured following the method provided in Exp Dermatol 2011; 20: 242-8. Human skin fibroblasts are derived from Chung-Ho Memorial Hospital, Kaohsiung Medical University, Taiwan, ROC, and incubated in Dulbecco's Modified Eagle Medium including 10% fetal calf serum, 100 μg/ml streptomycin, and 250 ng/ml amphotericin B. Human keratinocytes are isolated from foreskin primary culture and cultured in Keratinocyte-SFM Medium supplemented with Bovine Pituitary Extract and EGF. All of these cells are incubated at 37° C. in a humidified incubator with 5% CO2 atmosphere.
(§2) 3-(4,5-cimethylthiazol-2-yl)-2,5-diphenyl tetrazolium bromide assay (MTT assay) is performed to analyze the effect on the proliferation of skin cells treated with different 6-DG concentration (dissolved in DMSO). Firstly, 6-DG of different concentration is seeded in a 96-well culture dish cultured with skin cells and incubated for 24 hr. MIT solution (5 mg/ml, dissolved in PBS) is added into the dish and incubated again at 37° C. for 2 hr. Medium in the dish is removed, 0.05 ml DMSO is added to the dish, and then the dish is shaken in a dark position for 20 min. Finally, the OD value of each well of the dish is calculated by 595 nm-wavelength light (UV-vis, BioTek, USA). Considering whether DMSO has effect on the skin cell proliferation or not, skin cells treated with DMSO are used as a control.

human keratinocytes [2] = assay: MTT assay, proliferation of skin cells; assay type: cell-based; settings: 24 hr, FIG. 2(B)
Method: as §1, §2

PDGF-αβ [3] = assay: ELISA, growth factor expression in conditioned medium of fibroblasts; assay type: cell-based, human; settings: 24 hr, medium supernatant, mean ± SD
Method: as §1
(§3) Enzyme-linked immunoassay (ELISA) is performed to analyze the effect on the growth factor expression of skin cells treated with different 6-DG concentration (dissolved in DMSO). Firstly, 6-DG of different concentration is incubated in a 6-well culture dish with skin cells cultured in a conditioned medium for 24 hr. Supernant of the conditioned medium is collected for analyzing the concentration of TGF-β, VEGF, and PDGF-αβ following the directions provided by DuoSet ELISA development kits (R&D Systems, USA). With regard to whether DMSO has effect on the growth factor expression or not, skin cells treated with DMSO are used as a control.

TGF-β [4] = assay: as above; assay type: cell-based, human; settings: 24 hr, medium supernatant, mean ± SD
Method: as §1, §3

VEGF [5] = assay: as above; assay type: cell-based, human; settings: 24 hr, medium supernatant, mean ± SD
Method: as §1, §3

PDGF-αβ [6] = assay: ELISA, growth factor expression in conditioned medium of keratinocytes; assay type: cell-based, human; settings: 24 hr, medium supernatant, mean ± SD
Method: as §1, §3

TGF-β [7] = assay: as above; assay type: cell-based, human; settings: 24 hr, medium supernatant, mean ± SD
Method: as §1, §3

VEGF [8] = assay: as above; assay type: cell-based, human; settings: 24 hr, medium supernatant, mean ± SD
Method: as §1, §3

human fibroblasts [9] = assay: Migration of skin cells into wound area (scratch assay, TScratch); assay type: cell-based
Method: as §1
(§4) An assay disclosed in Process Biochemistry 2010; 45:1865-72 is performed to analyze the effect on migration of skin cells treated with different 6-DG concentration (dissolved in DMSO). 5×10^5 skin cells are seeded in a 12-well culture dish and grown to complete confluence. Prior to adding 6-DG of different concentration to the dish, a clean […] would area is created on the skin cells. The wound area is photographed using an inverted phase-contrast microscopy (TE2000-U; Nikon, Tokyo, Japan) equipped with NIS-Elements software (Nikon), and the skin cell migration in the wound area is calculated by the free software “TScratch” (www.cse-lab.ethz.ch/software.html). Considering whether DMSO has effect on the skin cell migration or not, skin cells treated with 0.5% DMSO are used as a control.

human keratinocytes [10] = assay: as above; assay type: cell-based
Method: as §1, §4

MMP-1 [11] = assay: Western blotting, human fibroblasts; assay type: cell-based; settings: compared with cells only treated with PMA
Method: (§5) Signal transduction of skin cells treated with 6-DG is studied. Firstly, 6-DG of different concentration is incubated with 1×10^6 human fibroblasts. After being incubated for 24 hr, the human fibroblasts are washed twice with phosphate-buffered saline (PBS), and then lysed by a lysis buffer containing 50 mM Tris-HCl, pH7.5, 137 mM sodium chloride, 1 mM EDTA, 1% Nonidet P-40, 10% glycerol, 0.1 mM sodium orthovanadate, 10 mM sodium pyrophosphate, 20 mM β-glycerophosphate, 50 mM sodium fluoride, 1 mM phenylmethysulfonyl fluoride, 2 mM leupeptin, and 2 μg/ml aprotinin. A cell extract having the lysed human fibroblasts is separated by a centrifugal force of 10,000 g at 4° C., and supernant of the cell extract is collected for determining protein concentration using Bicinchoninic acid protein assay kit (Pierce, Rockford, Ill., USA). Equal concentration of protein in the supernant is separated by SDS-PAGE, and then blotted to a PVDF membrane (PALL Life Science, Ann Arbor, Mich., USA). After being blocked for 1 hr in phosphate-buffered saline & tween (PBST) containing 5% non-fat milk, primary antibodies are added to the membrane. The membrane is washed with PBST twice, and next secondary antibodies against the primary antibodies are added to the membrane. Finally, signals on the membrane are visualized by enhanced chemiluminescence substrate (PerkinElmer, USA). As the description of “BACKGROUND OF THE INVENTION,” it is said that PMA, an activator for protein kinase C, phosphorylates JNK and ERK to produce MMP-1 and inhibits TIMP-1. For further confirming the effect on signal transduction of skin cells treated with 6-DG, the human fibroblasts are incubated with 20 ng/ml PMA prior to being treated with 6-DG.

TIMP-1 = assay: Western blotting, human fibroblasts; assay type: cell-based
Method: as §5

c-Jun and ERK = assay: Western blotting, human fibroblasts, phosphorylation; assay type: cell-based; settings: compared with cells only treated with PMA
Method: Signal transduction of skin cells treated with 6-DG is studied. Firstly, 6-DG of different concentration is incubated with 1×10^6 human fibroblasts. After being incubated for 24 hr, the human fibroblasts are washed twice with phosphate-buffered saline (PBS), and then lysed by a lysis buffer containing 50 mM Tris-HCl, pH7.5, 137 mM sodium chloride, 1 mM EDTA, 1% Nonidet P-40, 10% glycerol, 0.1 mM sodium orthovanadate, 10 mM sodium pyrophosphate, 20 mM β-glycerophosphate, 50 mM sodium fluoride, 1 mM phenylmethysulfonyl fluoride, 2 mM leupeptin, and 2 μg/ml aprotinin. A cell extract having the lysed human fibroblasts is separated by a centrifugal force of 10,000 g at 4° C., and supernant of the cell extract is collected for determining protein concentration using Bicinchoninic acid protein assay kit (Pierce, Rockford, Ill., USA). Equal concentration of protein in the supernant is separated by SDS-PAGE, and then blotted to a PVDF membrane (PALL Life Science, Ann Arbor, Mich., USA). After being blocked for 1 hr in phosphate-buffered saline & tween (PBST) containing 5% non-fat milk, primary antibodies are added to the membrane. The membrane is washed with PBST twice, and next secondary antibodies against the primary antibodies are added to the membrane. Finally, signals on the membrane are visualized by enhanced chemiluminescence substrate (PerkinElmer, USA). […]

collagen = assay: Sirius red collagen staining, human fibroblasts; assay type: cell-based; settings: for collagen expression level of fibroblasts: FIG. 5(B); for collagen expression level per human fibroblast: FIG. 5(C)
Method: Sirius red collagen staining is performed to analyze the effect on the collagen expression of skin cells treated with 6-DG 6-DG of different concentration is added to a 24-well culture dish cultured with human fibroblasts. Medium in the dish is removed and the fibroblasts are washed with PBS twice. 100 μl Sirius Red is added to each well of the dish and incubated at room temperature for 1 hr. After removing the unstained Sirius Red, the fibroblasts are washed with 100 μl 0.1N HCl for at least five times, and then 100 μl 0.1N NaOH is used to extract the stained Sirius Red. Finally, the OD value of the extracted stained Sirius Red is calculated by 540 nm-wavelength light. As the described in “BACKGROUND OF THE INVENTION,” it is said that PMA, an activator for protein kinase C, phosphorylates JNK and ERK to produce MMP-1, and inhibits TIMP-1. With regard to the effect on the collagen expression of skin cells treated with 6-DG, the human fibroblasts are incubated with 20 ng/ml PMA prior to being incubated with 6-DG.

human fibroblasts [12] = assay: Proliferation of human fibroblasts with or without PMA (FIG. 5(A)); assay type: cell-based
MMP-1 [13] = assay: Collagen zymography, MMP-1 activity of human fibroblasts; assay type: cell-based
Method: Collagen zymography is performed to analyze the effect on the MMP-1 activity of skin cells treated with 6-DG. After electrophoresis of the foregoing lysed cell extract in SDS-PAGE containing 0.1% collagen, the SDS-PAGE is reacted with 2.5% Triton X-100 to remove SDS and make the protein of the lysed extract folded, and then incubated with a Tris-base buffer containing NaCl, CaCl2, and ZnCl2. Finally, this gel is stained with Coomassie Brilliant Blue R250, and the signal at 52 kDa […] position on the gel is calculated by Gel Pro v4.0 software (Media Cybernetics, Silver Spring, Md., USA).
“BACKGROUND OF THE INVENTION” of the content is said that PMA, an activator for protein kinase C, phosphorylates JNK and ERK to produce MMP-1, and inhibits TIMP-1. For confirming the effect on the MMP-1 activity of skin cells treated with 6-DG, the human fibroblasts are incubated with 20 ng/ml PMA prior to being treated with 6-DG.

[14] = skin cells (fibroblasts and keratinocytes), based on the volume of the composition
[15] = 20 ng/ml PMA prior to 6-DG, compared with PMA only
[16] = 6-DG, compared with untreated (control) and PMA only

`CCCCCC(=O)/C=C(O)/C=C/c1ccc(O)c(OC)c1` [6-DG, 6-dehydrogingerdione] was tested, and the “proliferation of human fibroblasts compared with control” value (human fibroblasts [1]; 2 μM 6-DG) was “obviously proliferated”, the “proliferation of human fibroblasts compared with control” value (human fibroblasts [1]; 50 μM 6-DG) was “obviously proliferated” and the “proliferation of human fibroblasts compared with control” value (human fibroblasts [1]; 100 μM 6-DG) was “not obviously proliferated”. For the same compound, the “effective concentration for promoting skin cell proliferation” value (human fibroblasts [1]; [14]) was 2 to 50 µM, the “proliferation of human keratinocytes compared with control” value (human keratinocytes [2]; 2 μM 6-DG) was “obviously proliferated” and the “proliferation of human keratinocytes compared with control” value (human keratinocytes [2]; 50 μM 6-DG) was “obviously proliferated”. The “proliferation of human keratinocytes compared with control” value (human keratinocytes [2]; 100 μM 6-DG) was “not obviously proliferated”, the PDGF-αβ (PDGF-αβ [3]; 6-DG 2 μM) was 7.1 ± 0.1 pg/mL and the PDGF-αβ (PDGF-αβ [3]; 6-DG 10 μM) was 5.3 ± 0.1 pg/mL. The TGF-β (TGF-β [4]; 6-DG 2 μM) was 984.5 ± 21.6 pg/mL, the TGF-β (TGF-β [4]; 6-DG 10 μM) was 1003.3 ± 24.0 pg/mL and the VEGF (VEGF [5]; 6-DG 2 μM) was 432.0 ± 14.6 pg/mL. The VEGF (VEGF [5]; 6-DG 10 μM) was 294.5 ± 14.6 pg/mL, the PDGF-αβ (PDGF-αβ [6]; 6-DG 2 μM) was 5.84 ± 0.2 pg/mL and the PDGF-αβ (PDGF-αβ [6]; 6-DG 10 μM) was 4.55 ± 0.1 pg/mL. The TGF-β (TGF-β [7]; 6-DG 2 μM) was 822.8 ± 15.3 pg/mL, the TGF-β (TGF-β [7]; 6-DG 10 μM) was 768.0 ± 9.6 pg/mL and the VEGF (VEGF [8]; 6-DG 2 μM) was 344.3 ± 9.5 pg/mL. For the same compound, the VEGF (VEGF [8]; 6-DG 10 μM) was 292.8 ± 7.3 pg/mL, the “migration of human fibroblasts to the wound area” value (human fibroblasts [9]; 2 μM 6-DG for 24 hr) was “more obvious” and the “migration of human fibroblasts to the wound area” value (human fibroblasts [9]; 10 μM 6-DG, compared with 2 μM) was “less obvious than that after being treated with 2 μM”. The “effective concentration for promoting migration of skin cells” value (human fibroblasts [9]; [14]) was 2 to 50 µM, the “migration of human fibroblasts to the wound area compared with control” value (human fibroblasts [9]; treated with 6-DG, FIGS. 3(A)-3(B)) was “obviously migrate to the wound area” and the “migration of human keratinocytes to the wound area” value (human keratinocytes [10]; 2 μM 6-DG for 24 hr) was “more obvious”. The “migration of human keratinocytes to the wound area” value (human keratinocytes [10]; 10 μM 6-DG, compared with 2 μM) was “less obvious than that after being treated with 2 μM”, the “migration of human keratinocytes to the wound area compared with control” value (human keratinocytes [10]; treated with 6-DG, FIGS. 3(C)-3(D)) was “obviously migrate to the wound area” and the “expression level of MMP-1” value (MMP-1 [11]; 20 ng/ml PMA prior to 6-DG) was “down-regulated expression level of MMP-1”. For the same compound, the “expression level of MMP-1” value (MMP-1 [11]; 6-DG) was “down-regulated expression level of MMP-1”, the “expression of TIMP-1” value (TIMP-1; 6-DG 24 hr, compared with fibroblasts untreated) was “up-regulate the expression of TIMP-1” and the “expression level of TIMP-1” value (TIMP-1; 6-DG, compared with cells only treated with PMA) was “up-regulated expression level of TIMP-1”. For the same compound, the “phosphorylation level of c-Jun and ERK” value (c-Jun and ERK; 20 ng/ml PMA prior to 6-DG) was “less phosphorylation level of c-Jun and ERK”, the “phosphorylation level of c-Jun and ERK” value (c-Jun and ERK; 6-DG) was “less phosphorylation level of c-Jun and ERK” and the “collagen expression level of fibroblasts” value (collagen; [15]) was “still have up-regulated expression of collagen”. For the same compound, the “collagen expression level per human fibroblast” value (collagen; [15]) was “still has up-regulated expression of collagen”, the “collagen expression level of fibroblasts” value (collagen; [16]) was “up-regulated expression of collagen” and the “collagen expression level per human fibroblast” value (collagen; [16]) was “up-regulated expression of collagen”. For the same compound, the proliferation of fibroblasts (human fibroblasts [12]; [15]) was “still have obvious proliferation”, the proliferation of fibroblasts (human fibroblasts [12]; [16]) was “obvious proliferation” and the “activity of MMP-1” value (MMP-1 [13]; 20 ng/ml PMA prior to 6-DG, compared with fibroblasts only treated with PMA) was “lower activity of MMP-1”. The “activity of MMP-1” value (MMP-1 [13]; 6-DG, compared with fibroblasts only treated with PMA) was “lower MMP-1 activity” and the “activity of MMP-1” value (MMP-1 [13]; 6-DG, compared with fibroblasts untreated, FIGS. 6(A)-6(B)) was “no obvious difference”.

Reference: patent US8772347B2, “Use of a pharmaceutical composition for promoting proliferation and/or migration of skin cells, and for improving wound healing in a subject” (Kaohsiung Medical University, priority 2011, dated 2014)
